Key:
[1] = molecular target: T1, human recombinant adrenergic α1D receptor (Homo sapiens, UniProt P25100); assay: Adrenergic α1D radioligand binding assay ([3H]Prazosin); conditions: for inhibition at 1 µM: 1 μM compound
T1 construct: expressed in transfected cells; host or cells: HEK-293 cells
T1 sequence (P25100 1-572): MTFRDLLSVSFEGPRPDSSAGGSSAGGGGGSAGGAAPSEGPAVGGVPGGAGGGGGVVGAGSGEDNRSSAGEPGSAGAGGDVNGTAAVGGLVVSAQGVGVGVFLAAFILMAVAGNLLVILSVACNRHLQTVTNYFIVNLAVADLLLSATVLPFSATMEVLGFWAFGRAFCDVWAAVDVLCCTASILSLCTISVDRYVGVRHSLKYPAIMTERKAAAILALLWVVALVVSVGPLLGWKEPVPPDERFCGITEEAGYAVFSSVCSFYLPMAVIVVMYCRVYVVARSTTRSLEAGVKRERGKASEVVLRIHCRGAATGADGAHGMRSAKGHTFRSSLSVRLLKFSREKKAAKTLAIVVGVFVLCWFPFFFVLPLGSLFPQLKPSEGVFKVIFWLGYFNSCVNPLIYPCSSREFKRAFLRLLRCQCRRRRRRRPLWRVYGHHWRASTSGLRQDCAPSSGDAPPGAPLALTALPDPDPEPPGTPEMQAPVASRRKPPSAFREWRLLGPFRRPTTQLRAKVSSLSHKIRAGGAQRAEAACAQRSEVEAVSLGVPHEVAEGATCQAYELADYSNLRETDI
Description: To evaluate in radioligand binding assays the activity of compounds of the invention, human recombinant adrenergic α1D receptor expressed in human embryonic kidney (HEK-293) cells (Kenny, B. et al, Br. J. Pharmacol. 115(6):981, 1995) in a 50 mM Tris-HCl buffer, pH 7.4, was used. Compounds were incubated with 0.6 nM [3H]Prazosin for 60 min at 25° C. Non-specific binding was estimated in the presence of 10 μM phentolamine. Receptor proteins were filtered and washed, the filters were then counted to determine [3H]Prazosin specifically bound. Compounds were screened at 1 μM or lower, using 1% DMSO as vehicle. Biochemical assay results are presented as the percent inhibition of specific binding in Tables B1A-B1D.

[2] = molecular target: T2, human recombinant adrenergic α2A receptor (Homo sapiens, UniProt P08913); assay: Adrenergic α2A radioligand binding assay ([3H]MK-912); conditions: for inhibition at 1 µM: 1 μM compound, read-out: Percentage inhibition of ligand binding, Adrenergic α2A; for Percentage inhibition of ligand binding, Adrenergic α2A: 0.1 μM compound, 0.1 µM
T2 construct: expressed in transfected cells; host or cells: insect Sf9 cells
T2 sequence (P08913 1-465): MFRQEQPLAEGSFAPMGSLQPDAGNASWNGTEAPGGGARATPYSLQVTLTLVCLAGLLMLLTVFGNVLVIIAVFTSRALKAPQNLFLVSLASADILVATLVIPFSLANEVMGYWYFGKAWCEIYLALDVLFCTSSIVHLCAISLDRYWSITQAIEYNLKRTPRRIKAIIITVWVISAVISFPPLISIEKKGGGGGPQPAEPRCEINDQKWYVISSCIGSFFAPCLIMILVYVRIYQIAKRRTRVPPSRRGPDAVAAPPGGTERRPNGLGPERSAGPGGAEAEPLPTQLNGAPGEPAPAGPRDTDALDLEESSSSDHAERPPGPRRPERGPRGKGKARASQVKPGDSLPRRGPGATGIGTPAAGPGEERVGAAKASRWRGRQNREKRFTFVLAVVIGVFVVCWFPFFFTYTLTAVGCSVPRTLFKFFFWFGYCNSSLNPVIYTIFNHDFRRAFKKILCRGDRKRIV
Description: To evaluate in radioligand binding assays the activity of compounds of the invention, human recombinant adrenergic α2A receptor expressed in insect Sf9 cells (Uhlen, S. et al, J. Pharmacol. Exp. Ther. 271:1558, 1994) in a modified Tris-HCl buffer (50 mM Tris-HCl, pH 7.4, 12.5 mM MgCl2, 2 mM EDTA) was used. Compounds of invention were incubated with 1 nM [^3H]MK-912 for 60 min at 25° C. MK912 was (2S-trans)-1,3,4,5′,6,6′,7,12b-octahydro-1′,3′-dimethyl-spiro[2H-benzofuro[2,3-a]quinolizine-2,4′(1′H)-pyrimidin]-2′(3′H)-one hydrochloride Non-specific binding was estimated in the presence of 10 μM WB-4101 (2-(2,6-Dimethoxyphenoxyethyl)aminomethyl-1,4-benzodioxane hydrochloride). Receptor proteins were filtered and washed, the filters were then counted to determine [^3H]MK-912 specifically bound. Compounds were screened at 1 μM or lower, using 1% DMSO as vehicle. Compounds of the invention were tested in this biochemical assay and percent inhibition of specific binding was determined. Biochemical assay results are presented as the percent inhibition of specific binding in Tables B1A-B1D.

[3] = molecular target: T3, human recombinant adrenergic α2B receptor (Homo sapiens, UniProt P18089); assay: Adrenergic α2B radioligand binding assay ([3H]Rauwolscine); conditions: for inhibition at 1 µM: 1 μM compound; for inhibition at 1 µM / inhibition at 0.1 µM: read-out: Percentage inhibition of ligand binding, Adrenergic α2B; for Percentage inhibition of ligand binding, Adrenergic α2B / inhibition at 0.1 µM: 0.1 μM compound; for Percentage inhibition of ligand binding, Adrenergic α2B: 0.1 µM
T3 construct: expressed in transfected cells; host or cells: CHO-K1 cells
T3 sequence (P18089 1-450): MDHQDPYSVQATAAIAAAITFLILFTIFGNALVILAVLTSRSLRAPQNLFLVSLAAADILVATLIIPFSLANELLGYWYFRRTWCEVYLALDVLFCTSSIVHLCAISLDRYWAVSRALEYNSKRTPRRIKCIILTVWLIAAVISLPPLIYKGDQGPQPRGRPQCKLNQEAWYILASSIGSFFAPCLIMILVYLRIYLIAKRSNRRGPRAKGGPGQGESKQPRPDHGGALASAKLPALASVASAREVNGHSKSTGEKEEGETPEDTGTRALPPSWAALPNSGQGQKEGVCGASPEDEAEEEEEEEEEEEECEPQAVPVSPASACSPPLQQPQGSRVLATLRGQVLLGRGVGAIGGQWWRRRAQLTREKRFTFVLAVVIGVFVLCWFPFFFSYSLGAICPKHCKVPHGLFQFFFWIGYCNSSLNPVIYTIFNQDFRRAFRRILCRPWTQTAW
Description: To evaluate in radioligand binding assays the activity of compounds of the invention, human recombinant adrenergic α2B receptor expressed in Chinese hamster ovary (CHO) K1 cells (Uhlen, S. et al, Eur. J. Pharmacol. 343(1):93, 1998) in a modified Tris-HCl buffer (50 mM Tris-HCl, pH 7.4, 12.5 mM MgCl2, 1 mM EDTA, 0.2% BSA) was used. Compounds of the invention were incubated with 2.5 nM [3H]Rauwolscine for 60 min at 25° C. Non-specific binding was estimated in the presence of 10 μM Prazosin. Receptor proteins were filtered and washed, the filters were then counted to determine [3H]Rauwolscine specifically bound. Compounds were screened at 1 μM or lower, using 1% DMSO as vehicle. Compounds of the invention were tested in this biochemical assay and percent inhibition of specific binding was determined. Biochemical assay results are presented as the percent inhibition of specific binding in Tables B1A-B1D.

[4] = molecular target: T4, rat adrenergic α1B receptor obtained from Wistar Rat liver (Rattus norvegicus, UniProt P15823); assay: Adrenergic α1B radioligand binding assay ([3H]Prazosin); conditions: 0.1 μM compound; 0.1 µM
T4 construct: rat adrenergic α1B receptor obtained from Wistar Rat liver; from tissue; host or cells: Wistar rat liver
T4 sequence (P15823 1-515): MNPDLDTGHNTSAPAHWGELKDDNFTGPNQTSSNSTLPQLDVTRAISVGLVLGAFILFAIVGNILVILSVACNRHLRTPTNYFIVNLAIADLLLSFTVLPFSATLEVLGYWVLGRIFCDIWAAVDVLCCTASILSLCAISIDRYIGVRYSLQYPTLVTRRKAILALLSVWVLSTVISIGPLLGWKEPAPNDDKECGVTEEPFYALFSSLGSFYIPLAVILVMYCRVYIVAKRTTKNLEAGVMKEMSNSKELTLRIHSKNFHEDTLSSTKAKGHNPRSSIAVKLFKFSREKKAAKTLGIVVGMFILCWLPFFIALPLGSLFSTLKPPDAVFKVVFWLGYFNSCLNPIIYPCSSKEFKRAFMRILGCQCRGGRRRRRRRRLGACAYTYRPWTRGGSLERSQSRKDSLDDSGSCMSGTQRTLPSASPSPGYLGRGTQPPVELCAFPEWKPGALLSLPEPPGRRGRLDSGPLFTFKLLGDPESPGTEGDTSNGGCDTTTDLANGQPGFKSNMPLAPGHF
Description: To evaluate in radioligand binding assays the activity of compounds of the invention, rat adrenergic α1B receptor obtained from Wistar Rat liver (Garcia-S'ainz, J. et al, Biochem. Biophys. Res. Commun. 186:760, 1992; Michel, A. et al, Br. J. Pharmacol. 98:883, 1989) in a modified Tris-HCl buffer (50 mM Tris-HCl buffer, pH 7.4, 0.5 mM EDTA) was used. Compounds of the invention were incubated with 0.25 nM [^3H]Prazosin for 60 min at 25° C. Non-specific binding was estimated in the presence of 10 μM phentolamine. Receptor proteins were filtered and washed, the filters were then counted to determine [^3H]Prazosin specifically bound. Compounds were screened at 1 μM or lower, using 1% DMSO as vehicle. Compounds of the invention were tested in this biochemical assay and percent inhibition of specific binding was determined. Biochemical assay results are presented as the percent inhibition of specific binding in Tables B1A-B1D.

SH-SY5Y cells = assay: Cell viability assay (MTS reduction) against 4-Br-A23187 challenge; assay type: cell-based; conditions: compound 10 nM, 4-Br-A23187 (2 μM) for 24 h, Control = 100, Vehicle = 0
Description: SH-SY5Y cells cultured in DMEM/F12 media supplemented with 10% FBS were seeded in 96-well microplates at 150,000 cells/cm^2. After 24 h, cells were depleted from FBS and kept in culture for 24 h before the experiment. A stock solution was prepared by dissolving the calcium ionophore 4-Br-A23187 (Calbiochem Cat. N^o 100107) in DMSO at 25 mM. Cells were then treated with 4-Br-A23187 (2 μM), hydrogen peroxide (300 μM) or the mitochondrial toxin rotenone (25 μM) in the presence of vehicle or Compound of the Invention for 24 h. Cell death was determined by measurements of LDH release according to the Cytotoxicity Detection KitPlus (Roche, Mannheim, Germany). Cell viability was determined by measuring the capacity of cells to metabolize MTS tetrazolium (MTS) according to the Cytotoxicity Detection KitPlus (Roche, Mannheim, Germany) and MTS reduction was assessed by the CellTiter 96® AQueous One Solution Cell Proliferation assay (Promega Corporation, Madison, Wis., USA). Compounds were screened at 10 nM, using DMSO as vehicle. Assay results for the experiments with Br-A23187 were presented as the MTS reduction capacity (cell viability) of untreated cells (control), 4-Br-A23187-treated cells (vehicle), and co-incubation of Br-A23187 with Compounds of the Invention treated cells and using […] (FCCP) at 10 μM for 30 min as a control. This assay assesses the ability of the test compounds to protect against cell death that was mediated by mitochondrial dysfunction. In the assay, the calcium ionophore 4-Br-A23187 was used to challenge the cells, causing calcium levels to rise in mitochondria, which leads to depolarization and cell death. Test compounds were assessed for their ability to prevent cell death in response to challenge with 4-Br-A23187.

[5] = read-out: Percentage inhibition of ligand binding, Adrenergic α1D

Cc1cc2c3c(c1)c1c(n3CC2c2ccc(F)cc2)CCN(C)C1 (stereo not drawn) [B2]
inhibition at 1 µM [1, 5]: 24%
inhibition at 1 µM [2]: 89%
inhibition at 1 µM [3]: 74%

Cc1cc2c3c(c1)c1c(n3CC(c3ccc(F)cc3)C2)CCN(C)C1 (stereo not drawn) [B3]
inhibition at 1 µM [1, 5]: 38%
inhibition at 1 µM [2]: 89%
inhibition at 1 µM [3]: 68%

Cc1cc2c3c(c1)c1c(n3CC(C)(c3ccc(C)nc3)OC2C)CCN(C)C1 (stereo not drawn) [B161]
inhibition at 0.1 µM ([1]; 0.1 μM compound, read-out: Percentage inhibition of ligand binding, Adrenergic α1D): 1%
Percentage inhibition of ligand binding, Adrenergic α2A [2]: 13%
Percentage inhibition of ligand binding, Adrenergic α2B [3]: 7%
Percentage inhibition of ligand binding, Adrenergic α1B [4]: 2%

Cc1cc2c3c(c1)c1c(n3CC(C)(c3ccc(C)nc3)OC2C)CCN(C)C1 (stereo not drawn) [B164]
Percentage inhibition of ligand binding, Adrenergic α1D ([1]; 0.1 μM compound, 0.1 µM): 2%
Percentage inhibition of ligand binding, Adrenergic α2A [2]: 6%
Percentage inhibition of ligand binding, Adrenergic α2B [3]: 16%
Percentage inhibition of ligand binding, Adrenergic α1B [4]: 12%

Cc1ccc(C2Cn3c4c(c5cccc2c53)CN(C)CC4)cn1 (stereo not drawn) [B210]
inhibition at 0.1 µM [3]: 14%

Cc1cc2c(-c3ccccc3)cn3c4c(c(c1)c23)CN(C)CC4 [B211]
inhibition at 0.1 µM [3]: 82%

Cc1ccc2[nH]c3c(c2c1)CN(C)CC3(C)CCc1ccccc1 (stereo not drawn) [C43]
Relative Cytoprotective capacity (SH-SY5Y cells): 9.618

Cc1ccc2c(c1)c1c(n2C)C(C)(CCc2ccccc2)CN(C)C1 (stereo not drawn) [C44]
Relative Cytoprotective capacity (SH-SY5Y cells): −0.6342

Source: patent US20140303144A1, “COMPOUNDS AND METHODS OF TREATING HYPERTENSION” (Medivation Technologies, Inc., priority 2011, published 2014)
